Source: publication PMC8552049 (SLAS discovery : advancing life sciences R & D, 2021)
Read-outs that look alike come from different tables or passages of the source. Values belong to the compound of their own block, whether it stands above or below them.

Assays:
[1] = target: T1, RGS7/Gβ5/R7BP complex (Homo sapiens, UniProt P49802); assay: TR-FRET assay of RGS7/Gβ5 interaction with R7BP, activators mode; assay type: binding
T1 sequence (P49802 1-495): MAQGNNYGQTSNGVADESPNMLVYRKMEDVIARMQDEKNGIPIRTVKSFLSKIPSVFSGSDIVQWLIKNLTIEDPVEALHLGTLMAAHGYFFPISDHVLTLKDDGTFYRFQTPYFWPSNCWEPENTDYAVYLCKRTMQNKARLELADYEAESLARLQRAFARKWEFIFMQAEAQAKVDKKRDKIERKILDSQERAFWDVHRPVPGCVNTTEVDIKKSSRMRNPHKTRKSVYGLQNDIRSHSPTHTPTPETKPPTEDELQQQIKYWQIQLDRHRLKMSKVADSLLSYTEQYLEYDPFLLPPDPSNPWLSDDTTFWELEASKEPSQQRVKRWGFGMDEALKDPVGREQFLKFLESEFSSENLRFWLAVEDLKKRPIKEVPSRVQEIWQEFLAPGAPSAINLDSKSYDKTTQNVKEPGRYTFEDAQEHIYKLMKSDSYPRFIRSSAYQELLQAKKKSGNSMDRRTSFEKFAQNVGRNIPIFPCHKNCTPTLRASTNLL
T1 sequence (O14775 43-395 partner limits assumed): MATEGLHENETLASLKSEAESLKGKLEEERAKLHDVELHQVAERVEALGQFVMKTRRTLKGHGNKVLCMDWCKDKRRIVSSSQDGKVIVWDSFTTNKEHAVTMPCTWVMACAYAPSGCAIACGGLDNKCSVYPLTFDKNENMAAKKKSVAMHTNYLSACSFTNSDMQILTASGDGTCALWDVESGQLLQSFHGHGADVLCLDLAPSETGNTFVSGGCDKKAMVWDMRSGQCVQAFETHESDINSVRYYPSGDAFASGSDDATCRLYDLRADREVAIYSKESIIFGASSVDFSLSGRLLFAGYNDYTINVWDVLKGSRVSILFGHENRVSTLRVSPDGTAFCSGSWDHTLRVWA

[2] = target: T1, RGS7/Gβ5/R7BP complex; assay: TR-FRET assay of RGS7/Gβ5 interaction with R7BP, inhibitors mode; assay type: binding

SMILES: NC(=O)c1cc([N+](=O)[O-])cc([N+](=O)[O-])c1 [nitromide]
EC50 [1]: 760 ± 100 nM

IC50 [2]: 0.173 µM
maximum inhibition ([2]; tertiary screening, first HTS campaign, concentration response curves): 54.2 ± 0.84%
SMILES: O=C1CCCN1C(=S)C(=S)N1CCCC1=O [SR-01000319258–1, 1-[2-(2-oxopyrrolidin-1-yl)-2-sulfanylideneethanethioyl]pyrrolidin-2-one]

SMILES: NCCc1cc(O)c(O)cc1O [6-hydroxydopamine]
IC50 ([2]; IC50, inhibition of complex formation, initial dose response studies): 7.65 ± 3.74 µM
